These are literature values, as cited in US20250064782A1, “Methods of Treating Substance Use Disorders Using 5-MeO-DMT” (Journey Colab Corp., priority 2021, published 2025).

The subject of one data set is IL-6. As to conditions: Uthaug et al. 2020.
The conditions of data set [1]: rodents; Shen et al. 2011, Ermakova et al. 2022.

As for `COc1ccc2[nH]cc(CCN(C)C)c2c1` [5-MeO-DMT, 5-methoxy-N,N-dimethyltryptamine], the IL-6 levels post-administration result with IL-6 is reported as “significantly decrease IL-6 levels”. For the same compound, the “pharmacokinetics of 5-MeO-DMT” value in data set [1] is on record as “Non-linear pharmacokinetics”.
